Experimental data reported in patent US20230012570A1, “BICYCLIC COMPOUND USED AS SELECTIVE ANDROGEN RECEPTOR MODULATOR” (MEDSHINE DISCOVERY INC., priority 2019, published 2023).
Like-named read-outs stand apart in the source and are kept apart here.

Experiments:
androgen receptor (AR) = biological target: T1, androgen receptor (AR) (Homo sapiens, UniProt P10275); test: Agonistic effect of test compounds on androgen receptor (AR), LiveBLAzer FRET reporter cell assay; type: cell-based
T1 sequence (P10275 1-920): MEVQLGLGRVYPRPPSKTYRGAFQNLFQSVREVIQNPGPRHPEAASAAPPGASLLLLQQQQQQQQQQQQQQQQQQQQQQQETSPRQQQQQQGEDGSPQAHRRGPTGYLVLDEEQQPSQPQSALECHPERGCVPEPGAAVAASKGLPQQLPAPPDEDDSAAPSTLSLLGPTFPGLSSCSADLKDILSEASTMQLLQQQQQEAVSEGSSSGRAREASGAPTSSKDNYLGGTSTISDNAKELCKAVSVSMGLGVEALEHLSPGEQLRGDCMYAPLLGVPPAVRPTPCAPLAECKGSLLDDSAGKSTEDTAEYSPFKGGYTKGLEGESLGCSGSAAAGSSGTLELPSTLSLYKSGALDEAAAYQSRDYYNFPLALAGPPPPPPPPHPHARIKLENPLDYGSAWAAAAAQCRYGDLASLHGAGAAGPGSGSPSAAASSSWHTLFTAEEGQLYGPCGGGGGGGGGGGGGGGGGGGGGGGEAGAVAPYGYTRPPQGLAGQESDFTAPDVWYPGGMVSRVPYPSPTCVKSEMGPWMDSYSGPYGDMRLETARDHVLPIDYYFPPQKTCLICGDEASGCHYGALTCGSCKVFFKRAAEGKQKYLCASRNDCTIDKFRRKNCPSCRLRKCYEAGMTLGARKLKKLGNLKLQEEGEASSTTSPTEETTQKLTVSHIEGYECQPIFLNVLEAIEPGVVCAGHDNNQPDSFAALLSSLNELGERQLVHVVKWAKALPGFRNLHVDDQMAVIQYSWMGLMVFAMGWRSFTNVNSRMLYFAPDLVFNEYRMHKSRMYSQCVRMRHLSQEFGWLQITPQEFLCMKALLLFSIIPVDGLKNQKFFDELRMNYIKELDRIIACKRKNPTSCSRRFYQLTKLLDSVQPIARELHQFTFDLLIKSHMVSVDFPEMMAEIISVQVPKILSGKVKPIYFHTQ
Method: Experimental Embodiment 1: Agonistic Effect of Test Compounds on Androgen Receptor (AR)
1. Preparation of Compounds, Placing in Plates:
1.1 Preparation of compounds: the test compounds were diluted to the working concentration, and each compound was diluted by 4 times with Echo for 10 concentration gradients, and the compounds were added to a 384-well cell plate according to the microplate layout diagram, with 200 nL per well;
1.2 AR cell assay medium: 87% Opti-MEM (reduced serum medium), 10% Dialyzed FBS (dialyzed fetal bovine serum), 1% NEAA (non-essential amino acids), 1% sodium pyruvate and 1% penicillin-streptomycin;
1.3 culture medium, trypsin and Dulbecco's phosphate buffer were preheated in a 37° C. water bath;
1.4 the original medium in the cell culture flask was removed, and the cells were washed once with 6 mL of Dulbecco's phosphate buffer;
1.5 3.5 mL of trypsin was added to the cell culture flask, and the flask was gently shaken to make the trypsin fully contact with the cells, the trypsin was removed; after aspirating the trypsin, the culture flask was placed in a 37° C. incubator containing 5% CO2 for about 1 minute;
1.6 the cells were resuspended with 10 mL of cell detection medium, and about 0.8 mL of cell suspension was taken out for counting (ViCell XR)
1.7 the cell suspension was diluted with culture medium to 2.5×10^5 cells per mL;
1.8 40 !IL of cell suspension was added to each well of the cell plate, and 40 μL of cell culture medium was added to the other wells, and the cells were incubated in a 37° C. incubator containing 5% CO2 for 16 hours.
2. Reading the Board and Analyzing Data:
2.1 Preparation of solution A: 182 μL of DMSO was added to 200 μg of LiveBLAzer™-FRET B/G/g substrate (CCF4-AM). The solution A was packaged and stored in a refrigerator at −20° C.;
2.2 preparation of 6×substrate buffer: 15 μL of solution A was added to 150 μL of solution B, and the mixture was vortexed evenly, then 2335 μL of solution C was added to the above solution and vortexed evenly;
2.3 the cell culture plate was taken out, and 8μL of 6×substrate buffer was added to each well, shaken for 1 minute, and centrifuged at 1000 rpm for 10 seconds; after sealing the membrane, the cells were incubated at 23° C. for 2 hours, and the plate was read with Envision, and the curve EC50 value was fitted by Prism software.

[1] = Pharmacokinetic test in male SD rats, intravenous and intragastric administration, plasma LC-MS/MS; type: in vivo; details: rat; for Vd: read-out: Apparent volume of distribution Vdss; for clearance: read-out: Clearance rate Cl; for AUC(0-inf): read-out: Curve area (0-inf) AUC0-inf; for AUC(0-t): read-out: Curve area (0-t) AUC0-last; for half-life: read-out: Half-life T1/2 (converted); for bioavailability: oral, intragastric vs intravenous administration, read-out: Bioavailability F; for Cmax: read-out: Blood drug concentration Cmax; for Tmax: read-out: Peak time Tmax
Text: Experimental Embodiment 2: Pharmacokinetic Test of the Compounds of the Present Disclosure
Male SD rats were used as test animals, and LC-MS/MS method was used to determine the drug concentrations in plasma of rats at different time after intravenous and intragastric administration of compound 1A, compound 3A and compound 8A. To study the pharmacokinetic behavior of the compounds in rats and to evaluate their pharmacokinetic characteristics.
2.1 Test Drugs: Compound 1A, Compound 3A and Compound 8A
2.2 Test animals: 12 healthy adult male SD rats, divided into 6 groups with 2 rats in each group. The animal was purchased from Shanghai Sippr-BK laboratory animal Co. Ltd., and the animal production license number was SOCK (Shanghai) 2013-0016.
An appropriate amount of sample was weighed, and appropriate amounts of DMSO, polyethylene glycol-15 hydroxystearate and water were added in turn according to the volume ratio of 10:10:80, and the clarified state of 0.2 mg/mL was reached after stirring and sonication for intravenous administration.
An appropriate amount of sample was weighed and dissolved in 5% Tween 80+90% polyethylene glycol 400+5% polyvinylpyrrolidone K30 solution, and the clarified state of 0.5 mg/mL was reached after stirring and sonication for intragastric administration.
12 male SD rats were divided into 6 groups, and after fasting overnight, groups 1-3 were administered intravenously with a volume of 5 mL/kg; groups 4-6 were administered by gavage with a volume of 10 mL/kg.
After compound 1A, compound 3A and compound 8A were intravenously administered to SD rats, 40 μL of blood was collected at 0.0833, 0.25, 0.5, 1, 2, 4, 8 and 24 hours, respectively, and placed in a test tube containing 2 μL of EDTA-K2. After compound 1A and compound 3A were administered by gavage, 40 μL of blood was collected at 0.25, 0.5, 1, 2, 4, 8 and 24 hours, respectively, and placed in a test tube containing 2 μL of EDTA-K2. The tubes were centrifuged at 4000 rpm for 15 minutes to separate the plasma and stored at −60° C. Animals were allowed to eat 2 hours after administration.
The content of the test compounds in the plasma of rats after intravenous and intragastric administration was determined by LC-MS/MS method. The linear range of the method was 2.00-6000 nmol/L; plasma samples were analyzed after acetonitrile precipitation protein treatment.

[2] = AR cells, 16 hours incubation, 10 concentrations, read-out: EC50, agonist activity on androgen receptor
[3] = intravenous administration, dose 1.1 (1A), 0.69 (3A), 0.716 (8A) mg/kg
[4] = po, intragastric administration, dose 4.92 (1A), 4.2 (3A), 4.59 (8A) mg/kg

N#Cc1ncc(N2CC3CC3C2C(O)C(F)(F)F)cc1Cl (single isomer, unassigned) [Compound 10A]
EC50 (androgen receptor (AR); [2]): 55.8 nM

N#Cc1c(F)cc(N2CC3CC3C2C(O)C(F)(F)F)cc1Cl (single isomer, unassigned) [Compound 5A]
EC50 (androgen receptor (AR)): 0.37 nM

N#Cc1c(F)cc(N2CC3CC3C2C(O)C(F)(F)F)cc1C(F)(F)F (single isomer, unassigned) [Compound 7A]
EC50 (androgen receptor (AR)): 0.53 nM

N#Cc1ccc(N2C[C@@H]3COC[C@@H]3[C@H]2C(O)C(F)(F)F)cc1C(F)(F)F (single isomer, unassigned) [Compound 14A]
EC50 (androgen receptor (AR)): 0.39 nM

N#Cc1ccc(N2CC3CC3C2C(O)C(F)(F)F)cc1C(F)(F)F (single isomer, unassigned) [Compound 1A]
EC50 (androgen receptor (AR)): 0.81 nM | Vd [1, 3]: 1.43 L/kg | clearance [1, 3]: 20.6 mL/min/kg | AUC(0-inf) [1, 3]: 2.5 µM·h | AUC(0-t) [1, 3]: 2.47 µM·h | half-life [1, 3]: 1.37 h | bioavailability [1]: 11% | Cmax [1, 4]: 223 nM | AUC(0-t) [1, 4]: 1.24 µM·h | Tmax [1, 4]: 4 h

N#Cc1ncc(N2CC3C(C2C(O)C(F)(F)F)C3(F)F)cc1C(F)(F)F (stereo not shown) [Mixture of compounds 12A and 12B]
EC50 (androgen receptor (AR); [2]): 6.33 nM

N#Cc1ncc(N2CC3CC3C2C(O)C(F)(F)F)cc1C(F)(F)F (single isomer, unassigned) [Compound 8A]
EC50 (androgen receptor (AR); [2]): 3.25 nM | Vd [1, 3]: 2.22 L/kg | clearance [1, 3]: 6.99 mL/min/kg | AUC(0-inf) [1, 3]: 4.87 µM·h | AUC(0-t) [1, 3]: 4.78 µM·h | half-life [1, 3]: 4.18 h | bioavailability [1]: 41% | Cmax [1, 4]: 1660 nM | AUC(0-inf) [1, 4]: 12.9 µM·h | AUC(0-t) [1, 4]: 12.7 µM·h | half-life [1, 4]: 3.69 h | Tmax [1, 4]: 4 h

N#Cc1ncc(N2CC3CC3C2C(O)C(F)(F)F)cc1OC(F)F (single isomer, unassigned) [Compound 9A]
EC50 (androgen receptor (AR); [2]): 47.8 nM

N#Cc1cc(N2CC3CC3C2C(O)C(F)(F)F)cc(F)c1C#N (stereo not shown) [Mixture of compounds 6A and 6B]
EC50 (androgen receptor (AR); [2]): 4.3 nM

N#Cc1ccc(N2CC3CC3C2C(O)C(F)(F)F)cc1C(F)F (stereo not shown) [Mixture of compounds 2A and 2B]
EC50 (androgen receptor (AR)): 8.8 nM

COc1cc(N2CC3CC3C2C(O)C(F)(F)F)cnc1C#N (single isomer, unassigned) [Compound 11A]
EC50 (androgen receptor (AR); [2]): 135 nM
